Legend:
[1] = molecular target: hERG potassium channel current (IKr) (Homo sapiens, UniProt Q12809); assay: cell-based
Text: This assay is employed as a screen to assess potential risks for QT interval prolongation.

[2] = Summary of clinical observations in applicant-sponsored rat studies; details: Sprague Dawley, in vivo, other: intranasal instillation, HED 48 mg, read-out: NOAEL determined in the 14-day toxicology studies
Text: Based on preliminary data from another ongoing study in dogs, it has been observed that the site of blood sampling in dogs may impact the measured plasma exposure. Samples from the jugular vein may result in higher apparent exposure levels than samples from the cephalic vein, which might be due to the local transmucosal route of administration (also reported in the scientific literature (Illum, 2003; Sohlberg, 2013)). Therefore, dose escalation criteria for the Phase 1 Single Ascending Dose study are based on assessment of clinical criteria, safety factors and exposure. A maximum dose of 14 mg has been designated.

Chain of hERG potassium channel current (IKr) (Q12809 whole entry): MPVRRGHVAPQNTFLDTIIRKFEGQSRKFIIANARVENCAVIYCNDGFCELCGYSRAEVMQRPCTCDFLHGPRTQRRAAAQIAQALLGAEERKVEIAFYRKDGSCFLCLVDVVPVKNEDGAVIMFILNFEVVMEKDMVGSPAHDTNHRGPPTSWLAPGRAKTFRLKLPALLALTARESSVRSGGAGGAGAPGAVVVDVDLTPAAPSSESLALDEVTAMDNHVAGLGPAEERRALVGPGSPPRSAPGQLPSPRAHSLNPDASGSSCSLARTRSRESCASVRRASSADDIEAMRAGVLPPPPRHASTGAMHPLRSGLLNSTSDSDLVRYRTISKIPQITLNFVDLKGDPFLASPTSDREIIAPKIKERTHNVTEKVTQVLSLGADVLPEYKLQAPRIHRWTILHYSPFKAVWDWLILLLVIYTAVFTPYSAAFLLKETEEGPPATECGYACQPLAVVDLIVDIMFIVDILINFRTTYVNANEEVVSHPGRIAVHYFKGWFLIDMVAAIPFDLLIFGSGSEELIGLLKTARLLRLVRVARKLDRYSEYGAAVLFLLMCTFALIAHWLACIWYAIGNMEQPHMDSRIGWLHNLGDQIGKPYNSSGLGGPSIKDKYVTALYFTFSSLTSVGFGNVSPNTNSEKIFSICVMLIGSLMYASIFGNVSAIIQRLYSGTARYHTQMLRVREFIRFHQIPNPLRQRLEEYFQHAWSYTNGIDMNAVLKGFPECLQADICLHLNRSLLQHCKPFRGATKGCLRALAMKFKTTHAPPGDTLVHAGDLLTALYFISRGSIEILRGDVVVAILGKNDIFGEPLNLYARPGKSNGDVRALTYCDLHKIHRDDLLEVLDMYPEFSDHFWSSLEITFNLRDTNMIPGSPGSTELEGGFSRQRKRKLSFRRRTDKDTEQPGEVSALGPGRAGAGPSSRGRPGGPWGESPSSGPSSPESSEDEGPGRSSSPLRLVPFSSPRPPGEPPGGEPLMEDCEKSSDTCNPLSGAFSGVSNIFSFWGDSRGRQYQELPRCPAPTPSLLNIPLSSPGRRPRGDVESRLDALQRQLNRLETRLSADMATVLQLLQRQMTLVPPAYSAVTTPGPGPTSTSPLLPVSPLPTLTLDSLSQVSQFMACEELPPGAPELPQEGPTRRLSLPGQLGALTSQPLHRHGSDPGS

Row | SMILES | IC50 [1] | inhibition at 1 µM ([1]; human) | inhibition at 3 µM ([1]; human) | inhibition at 10 µM ([1]; human) | inhibition at 35 µM ([1]; human) | NOAEL at 14 days [2]
1 | COc1ccc2[nH]cc(CCN(C)C)c2c1 [5MeODMT, 5-methoxy-N,N-dimethyltryptamine] | 8.69 µM | 5.03 ± 1.95% | 23.8 ± 6.1% | 52.7 ± 2.61% | 82.2 ± 1.91% | 
2 | COc1ccc2[nH]cc(CCN(C)C)c2c1 [BPL-5MEO, 5-methoxy-N,N-dimethyltryptamine] |  |  |  |  |  | 5 mg/kg
